The values that follow come from patent publication US9669016B2, “Antiparasitic effect of Bis[3,5-Bis(Benzylidene)-4-Oxo-1-Piperidinyl]amide Derivatives” (priority 2014, dated 2017).

Where two headings read alike, the source gives them in different places.

In series [1] the test system is BALB/c intraperitoneal macrophages. The experiment in a line: Viability assay (Alamar Blue) on peritoneal murine macrophages. The class given is cell-based. Conditions: Mus musculus, Macrophage; read-out: Mammalian cells IC50 ± SD, Peritoneal Murine Macrophages. The protocol: (§1) Viability assay on mammalian cells and T. cruzi epimastigotes. The cytotoxicity and anti-trypanosomal activity of the NC compounds was tested in human Hs27 fibroblasts (ATCC CRL-1634), LLC-MK2 cells (ATCC CCL-7), RAW 264.7 murine macrophages (ATCC TIB71) (American Type Culture Collection-ATCC, Manassa, Va.), mice intraperitoneal macrophages and in epimastigote forms of T. cruzi Y strain using Alamar Blue assay (Invitrogen—Life Technology, Grand Island, N.Y.). The experiments were performed as described using a range of concentration of 500 μM to 1 nM.
A general note: The colour change of resazurin is a common sign of viable cells or microbes.

The next series relates to LLC-MK2 cells. In words: Viability assay (Alamar Blue) on LLC-MK2 cells. The class given is cell-based, Rhesus monkey. Conditions: Macaca mulatta, read-out: Mammalian cells IC50 ± SD, LLC-MK2. The protocol:
(§2) Rhesus monkey kidney epithelial cell LLC-MK2 (American Type Culture Collection-ATCC, Manassas, Va. # CCL-7), Hs-27 human fibroblasts (American Type Culture Collection-ATCC, Manassas, Va.), RAW 264.7 murine macrophages (American Type Culture Collection-ATCC, Manassas, Va.) U2-09 human osteoblasts (American Type Culture Collection-ATCC, Manassas, Va. # HTB-99) (American Type Culture Collection-ATCC, Manassas, Va.) cells were cultured in Dulbecco's Modified Eagle's Medium (DMEM), supplemented with 10% inactivated FBS, along with 1% of 10,000 units/ml penicillin and 10 mg/ml streptomycin in 0.9% sodium chloride. Intraperitoneal BALB/c mice macrophages were obtained and cultured in DMEM high-glucose, +L-glu, supplemented with 10% FBS (inactivated). The procedure was performed minimizing the distress and pain for the animals following the NIH guidance and animal protocol approved by UTEP's Institutional Animal Care and Use Committee (IACUC).
as §1
(§3) The statistical significance (p-value) of the compound's cytotoxicity was calculated using the General Linear Mixed Model Analysis. This analysis was used to test the linear effect of the logarithm of dose on the logit transformation of the percent survival. The IC50 was obtained as the exponent of the negative ratio of the y-intercept and the slope of the fitted regression line (SAS Software, Version 9.2). […] All experiments had statistical significance determined at p≦0.05(*), p≦0.01(**), and p≦0.001(***).

The subject of the next series is Hs27 human fibroblasts. In words: Viability assay (Alamar Blue) on Hs27 fibroblasts. Conditions: read-out: Mammalian cells IC50 ± SD, Hs27 Fibroblasts. The class given is cell-based. As to the method: as §2, §1, §3
For series [2], the system named is Leishmania major promastigotes. The experiment in a line: Luciferase survival assay on L. major promastigotes. The class given is cell-based. As to the method: Evaluation of the NC library activity against Leishmania major. The NC library (136 compounds) was screened using firefly luciferase-expressing L. major promastigotes referred to as Lmj-FV1-LUC-TK (L. major strain Friedlin (MHOM/JL/80/Friedlin) clone V1) engineered to express luciferase following integration of the construct pIR1SAT-LUC(a)-TK(b) (strain B5113) in the rRNA locus (S. M. Hickerson and S. M. Beverley, unpublished data). Enones (stock solutions in DMSO) were diluted (1 nM to 500 μM, in a final 1% DMSO) and added (1 μl per well) to 96-well microplates using an Eppendorf epMotion 5070 automated pipetting system. Promastigotes (10^6/well) were added, and parasite survival was assessed by luciferase activity with the substrate 5′-fluoroluciferin (ONE-Glo Luciferase Assay System, Promega) after 96-h incubation at 28° C., using a luminometer (Luminoskan, Thermo). The bioluminescent intensity was a direct measure of the survival of parasites. This was determined by comparing bioluminescent intensity of L. major parasites live/dead with MTT assay and cell counting. The primary compound screens were performed as single wells.

The test system of a further series is T. cruzi epimastigotes. In words: Viability assay (Alamar Blue) on T. cruzi epimastigotes. The class given is cell-based. To be noted: Trypanosoma cruzi. As to the method: as §1
A further series relates to L. major promastigotes. The experiment in a line: Annexin V/PI assay on L. major promastigotes. The class given is cell-based, Leishmania major. Conditions: 24 h; NC901 2.5 μM, NC884 2.5 μM, NC2459 312 nM. As to the method: (§4) Apoptosis was evaluated using Alexa Fluor® 488 Annexin V/PI Apoptosis Kit (Initrogen™-Life technology, Grand Island, N.Y.). L. major promastigotes and BALB/c mice intraperitoneal macrophages were treated with each compound for 24 h. After exposure, the parasites (5×10^7) and macrophages (5×10^6) were harvested, washed and re-suspended with PBS. The Annexin V/PI staining of cells followed the manufacturer's instructions. Then the samples were analyzed with Beckman Coulter Fc500 flow cytometer (Beckman Coulter, USA). The results were expressed as the number of annexin positive cells per thousand cells counted.

The test system of series [3] is BALB/c mice intraperitoneal macrophages. The experiment in a line: Annexin V/PI assay on intraperitoneal macrophages. The class given is cell-based, mouse. As to the method: as §4
Series [4] in a line: Weight and toxicity monitoring in treated infected mice. The class given is in vivo, BALB/c mice. Conditions: for deaths as a result of compound toxicity / weight loss: 10^5 infection experiment; for weight loss: daily IP treatment. As to the method:
The in vivo experiments were comprised of four groups of five mice each: (1) infected, but not treated [control for the infection—100 μL of DMSO per day, drug diluent]; (2) treated with NC884, NC901 or NC2459, but not infected with the parasites [control for drug toxicity]; (3) infected with the parasites and treated with amphotericin B (8 mg/kg/day) [reference drug; positive control]; and (4) infected with the parasites and treated with NC884, NC901 or NC2459 [experimental group]. Luciferase expressing metacyclic promastigotes L. major (Freidlin V1) were obtained as described previously. Suspensions of 1×10^5 or 1×10^6 parasites per 50 μl of sterile DMEM (endotoxin-free) were injected with a 30G needle into the left hind footpad of BALB/c mice. Two weeks post-infection the compounds were administered once a day by intraperitoneal route, daily for 14 to 17 days. Twice a week, weights were recorded to monitor toxicity and the thickness of the infected footpad and the non-infected footpad was measured with digital calipers to monitor the progression of the disease. The parasitic load also was evaluated through in vivo imaging using luminescence (Kodak Image Station). The mice were injected intra-peritoneally with 150 mg/kg D-luciferin (Sigma, USA) 10 min before imaging, anesthetized with 1-2% isofluorane in oxygen during imaging and the net intensity emitted from the footpad was quantified using the KODAK Image Station software. Parasite burden was expressed as net intensity emitted from L. major infected footpad lesions normalized against the background fluorescence of uninfected mice. The presence/absence of parasites was confirmed by PCR using L. major methionine aminopeptidase (MetAP1) 1 specific primers: 5′-[…]-3′ (SEQ ID NO:1) and 5′-[…]-3′ (SEQ ID NO:2) on cDNA reverse transcribed from total RNA extracted from footpad lysate obtained by macerating footpad tissue fragments in Trizol (Invitrogen Life Technologies, United States) with the gentleMACS™ Dissociator (Miltenyi Biotec GmbH, Germany) following the manufacturer's protocol.

The mark [5] stands for this setting: 96 h, read-out: estimated EC50, L. major promastigotes.
Where [6] appears, read: 96 h incubation, read-out: L. major Promastigotes EC50.
Where [7] appears, read: 96 h incubation, read-out: T. cruzi Epimastigotes EC50.
Setting [8] is: 96 hour incubation, read-out: EC50, T. cruzi epimastigotes.
[9] abbreviates: same concentrations as in L. major promastigotes, 24 h.

In the case of `CN(C)CC1CCC(CN(C)C)C1=O` (stereo not shown) [NC884], the 50% inhibitory concentration (IC50) in series [1] amounted to 7670 ± 310 nM; in the series with LLC-MK2 cells, 15100 ± 330 nM; in the series on Hs27 human fibroblasts, 16300 ± 170 nM. Besides, the EC50 in series [2] (setting [5]) is 1120 nM; in series [2] (setting [6]), 1120 nM; with T. cruzi epimastigotes (setting [7]), 475 nM; with T. cruzi epimastigotes (setting [8]), 475 nM. Further, the “annexin V binding (apoptosis-like effect) vs 1% DMSO” value (shortened to “annexin V binding … vs 1% DMSO”) in the series with L. major promastigotes is reported as “significantly induced an apoptosis-like effect”. Moreover, the “annexin V positive cells in macrophages” value in series [3] (setting [9]) is on record as “No effect”. For the same molecule, in series [4], the “deaths as a result of compound toxicity” value is “no mice died”. For the same molecule, the weight loss entry in series [4] is “no significant weight loss”.
Consider `CN(C)CC1CCCC(CN(C)C)C1=O` (stereo not shown) [NC901], for which the IC50 amounted to 7030 ± 420 nM in series [1], 8020 ± 250 nM in the series on LLC-MK2 cells and 16000 ± 120 nM in the series with Hs27 human fibroblasts. The EC50 in series [2] (setting [5]) was 453 nM; in series [2] (setting [6]) it was 450 nM; in the series on T. cruzi epimastigotes (setting [7]), 468 nM; in the series on T. cruzi epimastigotes (setting [8]), 468 nM. Besides, the “annexin V binding … vs 1% DMSO” value in the series with L. major promastigotes is reported as “significantly induced an apoptosis-like effect”. For the same molecule, the “annexin V positive cells in macrophages” value in series [3] was “No effect”. Further, in series [4], the “deaths as a result of compound toxicity” value is reported as “no mice died”. Also, the weight loss entry in series [4] is reported as “no significant weight loss”.
Regarding `O=C1/C(=C/c2ccccc2)CN(C(=O)C(=O)N2C/C(=C\c3ccccc3)C(=O)/C(=C/c3ccccc3)C2)C/C1=C\c1ccccc1` [NC2459], the IC50 was determined as 5450 ± 360 nM in series [1], 2000 ± 93 nM in the series with LLC-MK2 cells and 10010 ± 90 nM with Hs27 human fibroblasts. Further, the EC50 in series [2] (setting [6]) is 20 nM; in series [2] (after a 96 hour treatment, read-out: estimated EC50, L. major promastigotes), 20 nM; with T. cruzi epimastigotes (setting [7]), 20 nM; in the series with T. cruzi epimastigotes (setting [8]), 20 nM. Also, the “annexin V binding … vs 1% DMSO” value in the series on L. major promastigotes was “significantly induced an apoptosis-like effect”. For the same molecule, the “annexin V positive cells in macrophages” value in series [3] (setting [9]) is “No effect”. Moreover, the “deaths as a result of compound toxicity” value in series [4] is reported as “no mice died”. In series [4], the weight loss result is given as “no significant weight loss”. In series [4] (10^6 infection, 8 mg/kg/day extended treatment), the “additional weight loss or toxic side effects compared to the control group” value is given as “did not result in any additional weight loss or toxic side effects”.

The term IC50 denotes the midpoint of a concentration-inhibition curve. Broadly, the EC50 is the concentration needed to bring the measured effect to its halfway point.
